IC50 data for 16 compounds are collected here from patent EP2881391A1, “Spiroindoline carbocycle derivatives and pharmaceutical compositions thereof” (Bayer Pharma Aktiengesellschaft, priority 2013, dated 2015).

Molecules are shown by their SMILES.

This test deals with T1, human GnRH receptor (Homo sapiens, UniProt P30968).
T1 construct: line established by Prof; Thomas Gudermann; host or cells: CHO cells
T1 sequence (P30968 1-328): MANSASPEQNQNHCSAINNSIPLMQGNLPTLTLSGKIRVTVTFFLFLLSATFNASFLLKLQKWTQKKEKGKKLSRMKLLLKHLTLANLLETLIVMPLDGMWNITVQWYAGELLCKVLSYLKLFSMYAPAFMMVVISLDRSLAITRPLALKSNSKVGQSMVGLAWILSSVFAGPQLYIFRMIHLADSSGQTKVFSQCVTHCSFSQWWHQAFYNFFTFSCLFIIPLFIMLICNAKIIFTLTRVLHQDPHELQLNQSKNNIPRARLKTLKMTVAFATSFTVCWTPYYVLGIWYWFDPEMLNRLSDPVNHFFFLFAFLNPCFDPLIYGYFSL
Kind of test: IP-One HTRF assay (inhibition of GnRH-R activation by buserelin). The format is cell-based. Conditions: IP-One HTRF assay with buserelin (at EC80) stimulation; CHO cells stably expressing human GnRH receptor; tested 20 µM to 1 nM; read-out: Potency IC50. An excerpt: By using homogenous time-resolved fluorescence resonance energy transfer (HTRF), the generation of one component of the GnRH-R signalling cascade can be measured. After stimulation of CHO cells stably expressing human GnRH receptor (established by Prof. Thomas Gudermann, currently University of Marburg, Germany; supplied as frozen cell aliquots by Cell Culture Services, Hamburg, Germany) with the EC80 of the GnRH agonist buserelin, Gq protein-coupled receptor signalling cascade is activated resulting in PLC-dependent cleavage of PIP2 to Inositol-1,4,5-triphosphate (IP3) and Diacylglycerol. The second messenger IP3 is degraded intracellularly to myo-inositol. Inhibition of the final degradation step from Inositol-1-phosphate (IP1) to myo-inositol by addition of lithium chloride leads to accumulation of IP1 in the cells. In cell lysates, IP1 can be detected via an antibody-based HTRF detection technology, where IP1 can displace the FRET acceptor IP1-d2 from binding by Terbium-labelled anti-IP1 antibody as donor resulting in a signal decrease. Compounds were tested for their capability of inhibiting GnRH-R activation by buserelin. For all IP-One HTRF® assays reagents of Cisbio Bioassays (IP-One Tb Jumbo kit, #62IPAPEJ; Cisbio Bioassays, Bagnols sur Cèze Cedex, France) were used.
For the assay, frozen cell aliquots were thawed and a cell suspension (3.33x10^6 cells/ml) containing IP1-d2 (dilution 1:40) was prepared and incubated at 37°C. After 1 h 3 µl of the cell suspension were added to 50 nl of a 100-fold concentrated solution of the test compound in DMSO pre-dispensed in a well of a white low-volume 384-well microtiter plate (Greiner Bio-One, Frickenhausen, Germany). The mixture was incubated for 20 min at 22°C to allow for pre-binding of the test compound to the GnRH-R. The receptor signaling cascade was stimulated by addition of 2 µl buserelin or LHRH (at EC50 or EC80) in stimulation buffer (10 mM Hepes pH 7.4, 1 mM CaCl2, 0.5 mM MgCl2, 4.2 mM KCI, 146 mM NaCl, 5.5 mM α-D-Glucose, 0.05% BSA, 125 mM LiCl (final assay concentration 50 mM) in aqua dest.). Plates were incubated for 1 h at 37°C and 5% carbon dioxide before the cells were lysed by adding 3 µl Terbium-labelled anti-IP1 antibody (1:40) diluted in Conjugate & Lysis buffer as supplied with the kit. After an incubation for 1 h at 22°C to enable complete cell lysis and antibody binding to free IP1 or IP1-d2, plates were measured in an HTRF reader, e.g. a RUBYstar, PHERAstar (both BMG Labtechnologies, Offenburg, Germany) or a Viewlux (PerkinElmer LAS, Rodgau-Jügesheim, Germany). From the fluorescence emissions at 665 nm (FRET) and at 620 nm (background signal of Terbium-antibody), the ratio (emission at 665 nm divided by emission at 620 nm) was calculated and the data were normalized (reaction without test compound = 0% inhibition; all other assay components except agonist = 100% inhibition). On the same microtiter plate, compounds were tested at 10 different concentrations in the range of 20 µM to 1 nM (20 µM, 6.7 µM, 2.2 µM, 0.74 µM, 0.25 µM, 82 nM, 27 nM, 9.2 nM, 3.1 nM and 1 nM; dilution series prepared before the assay at the level of the 100-fold conc. stock solutions by serial 1:3 dilutions in 100% DMSO) in duplicate values for each concentration. By using an in-house software, the IC50 values were calculated by a 4 parameter fit. The data reveal that the compounds of the present invention have antagonist activities on the human GnRH receptor. Within the meaning of the present invention the antagonist activity is reflected by the ability of a compound of the invention to antagonize human GnRH receptor stimulation in IP-One HTRF® assay at least three times the standard deviation over the background level.
On the technique in general: In TR-FRET formats the signal depends on donor and acceptor labels being close together.
Broadly, the IC50 is the point on the concentration scale where inhibition reaches its midpoint. As for `O=C(NCC1CC1)c1ccc2c(c1)C1(CCC(O)(C(F)(F)F)CC1)C(C1CC1)N2S(=O)(=O)c1ccc(F)cc1` (stereo not shown) [Example 59, 2'-cyclopropyl-N-(cyclopropylmethyl)-1'-[(4-fluorophenyl)sulfonyl]-4-hydroxy-4-(trifluoromethyl)-1',2'-dihydrospiro[cyclohexane-1,3'-indole]-5'-carboxamide], the half-maximal inhibitory concentration (IC50) came out at 690 nM.

On to `O=C(NCC1CCCCC1)c1ccc2c(c1)C1(CCC(O)(C(F)(F)F)CC1)C(C1CC1)N2S(=O)(=O)c1ccc(F)cc1` (stereo not shown) [Example 61, N-(cyclohexylmethyl) -2'-cyclopropyl-1'-[(4-fluorophenyl)sulfonyl]-4-hydroxy-4-(trifluoromethyl)-1',2'-dihydrospiro[cyclohexane-1,3'-indole]-5'-carboxamide], for which the IC50 came out at 741 nM. Consider `CC(C)=CCC1N(S(=O)(=O)c2ccc(F)cc2)c2ccc(C(=O)NCc3ccccc3Cl)cc2C12CCC(O)(C(F)(F)F)CC2` (stereo not shown) [Example 22, N-(2-chlorobenzyl)-1'-[(4-fluorophenyl)sulfonyl]-4-hydroxy-2'-(3-methylbut-2-en-1-yl)-4-(trifluoromethyl)-1',2'-dihydrospiro[cyclohexane-1,3'-indole]-5'-carboxamide], for which the IC50 is 745 nM. The figure for `COc1cccc(S(=O)(=O)N2c3ccc(C(=O)Nc4ccon4)cc3C3(CCC(O)(C(F)(F)F)CC3)C2C2CC2)c1` (stereo not shown) [Example 38, 2'-cyclopropyl-4-hydroxy-1'-[(3-methoxyphenyl)su Ifonyl]-N-(1,2-oxazol-3-yl)-4-(trifluoromethyl)-1',2'-dihydrospiro[cyclohexane-1,3'-indole]-5'-carboxamide] is 1680 nM; for `O=C(NCc1ccc(F)cc1Cl)c1ccc2c(c1)C1(CCC(O)(C(F)(F)F)CC1)C(C1CC1)N2S(=O)(=O)c1ccc(F)cc1` (stereo not shown) [Example 60, N-(2-chloro-4-fluorobenzyl)-2'-cyclopropyl-1'-[(4-fluorophenyl)sulfonyl]-4-hydroxy-4-(trifluoromethyl)-1',2'-dihydrospiro[cyclohexane-1,3'-indole]-5'-carboxamide] it is 432 nM. For `O=C(NC1CCc2ccccc21)c1ccc2c(c1)C1(CCC(O)(C(F)(F)F)CC1)C(C1CC1)N2S(=O)(=O)c1ccc(F)cc1` (stereo not shown) [Example 53, 2'-cyclopropyl-N-(2,3-dihydro-1H-inden-1-yl)-1'-[(4-fluorophenyl)sulfonyl]-4-hydroxy-4-(trifluoromethyl)-1',2'-dihydrospiro[cyclohexane-1,3'-indole]-5'-carboxamide], the IC50 stood at 611 nM. In the case of `O=C(NCc1ncccc1Cl)c1ccc2c(c1)C1(CCC(O)(C(F)(F)F)CC1)C(C1CC1)N2S(=O)(=O)c1ccc(F)cc1` (racemic) [Example 1, N-[(3-chloropyridin-2-yl)methyl]-2'-cyclopropyl-1'-[(4-fluorophenyl)sulfonyl]-4-hydroxy-4-(trifluoromethyl)-1',2'-dihydrospiro[cyclohexane-1,3'-indole]-5'-carboxamide] it was 354 nM. For the compound `COc1cccc(S(=O)(=O)N2c3ccc(C(=O)Nc4cccc(C)c4)cc3C3(CCC(O)(C(F)(F)F)CC3)C2C2CC2)c1` (stereo not shown) [Example 34, 2'-cyclopropyl-4-hydroxy-1'-[(3-methoxyphenyl)su Ifonyl]-N-(3-methylphenyl)-4-(trifluoromethyl)-1',2'-dihydrospiro[cyclohexane-1,3'-indole]-5'-carboxamide], the IC50 was found to be 3410 nM.

Regarding `O=C1CCC2(CC1)c1cc(C(=O)NCc3ccccc3Cl)ccc1N(S(=O)(=O)c1ccc(F)cc1)C2C1CC1` (racemic) [Example 3, N-(2-chlorobenzyl)-2'-cyclopropyl-1'-[(4-fluorophenyl)sulfonyl]-4-oxo-1',2'-dihydrospiro[cyclohexane-1,3'-indole]-5'-carboxamide], the IC50 amounted to 46.8 nM. As for `O=C(Nc1cc[nH]n1)c1ccc2c(c1)C1(CCC(O)(C(F)(F)F)CC1)C(C1CC1)N2S(=O)(=O)c1ccc(F)cc1` (stereo not shown) [Example 52, 2'-cyclopropyl-1'-[(4-fluorophenyl)sulfonyl]-4-hydroxy-N-(1H-pyrazol-3-yl)-4-(trifluoromethyl)-1',2'-dihydrospiro[cyclohexane-1,3'-indole]-5'-carboxamide], the half-maximal inhibitory concentration (IC50) was 716 nM.

For the compound `CS(=O)(=O)c1cccc(NC(=O)c2ccc3c(c2)C2(CCC(O)(C(F)(F)F)CC2)C(C2CC2)N3S(=O)(=O)c2ccc(F)cc2)c1` (stereo not shown) [Example 46, 2'-cyclopropyl-1'-[(4-fluorophenyl)sulfonyl]-4-hydroxy-N-[3-(methylsulfonyl)phenyl]-4-(trifluoromethyl)-1',2'-dihydrospiro[cyclohexane-1,3'-indole]-5'-carboxamide], the IC50 came out at 540 nM. In the case of `O=C(Nc1ccon1)c1ccc2c(c1)C1(CCC(O)(C(F)(F)F)CC1)C(C1CC1)N2S(=O)(=O)c1ccc(F)cc1` (stereo not shown) [Example 56, 2'-cyclopropyl-1' [(4-fluorophenyl)sulfonyl]-4-hydroxy-N-(1,2-oxazol-3-yl)-4-(trifluoromethyl)-1',2'-dihydrospiro[cyclohexane-1,3'-indole]-5'-carboxamide], the IC50 stood at 286 nM. For the compound `O=C(O)c1cccc(S(=O)(=O)N2c3ccc(C(=O)Nc4ccon4)cc3C3(CCC(O)(C(F)(F)F)CC3)C2C2CC2)c1` (stereo not shown) [Example 48, 3-{[2'-cyclopropyl-4-hydroxy-5'-(1,2-oxazol-3-ylcarbamoyl)-4-(trifluoromethyl)spiro[cyclohexane-1,3'-indol]-1'(2'H)-yl]sulfonyl}benzoic acid], the IC50 worked out at 6710 nM. For `COc1cccc(S(=O)(=O)N2c3ccc(C(=O)NCc4ncccc4C(F)(F)F)cc3C3(CCC(O)(C(F)(F)F)CC3)C2C2CC2)c1` (stereo not shown) [Example 44, 2'-cyclopropyl-4-hydroxy-1'-[(3-methoxyphenyl)su Ifonyl]-4-(trifluoromethyl)-N-{[3-(trifluoromethyl)pyridin-2-yl]methyl}-1',2'-dihydrospiro[cyclohexane-1,3'-indole]-5'-carboxamide], the IC50 was 403 nM. For `CC(C)=CCC1N(S(=O)(=O)c2ccc(F)cc2)c2ccc(C(=O)Nc3ncco3)cc2C12CCC(O)(C(F)(F)F)CC2` (stereo not shown) [Example 20, 1'-[(4-fluorophenyl)sulfonyl]-4-hydroxy-2'-(3-methylbut-2-en-1-yl)-N-(1,3-oxazol-2-yl)-4-(trifluoromethyl)-1',2'-dihydrospiro[cyclohexane-1,3'-indole]-5'-carboxamide], the IC50 came out at 655 nM. Consider `O=C(NCc1ccccc1Cl)c1ccc2c(c1)C1(CCC(=NO)CC1)C(C1CC1)N2S(=O)(=O)c1ccc(F)cc1` (stereo not shown) [Example 5, N-(2-chlorobenzyl)-2'-cyclopropyl-1'-[(4-fluorophenyl)sulfonyl]-4-(hydroxyimino)-1',2'-dihydrospiro[cyclohexane-1,3'-indole]-5'-carboxamide], for which the IC50 is 65.7 nM.
